In patent publication US6291470A, “Indole derivatives process for producing the same and medicinal uses of the same” (Toray Industries, Inc., priority 1992, dated 2001):

Assays:
δ-opioid receptor = molecular target: T1, δ-opioid receptor (Mus musculus, UniProt P32300); experiment: δ-opioid antagonist activity against DPDPE in mouse vas deferens (MVD); details: against DPDPE; test compound 100 nM, 20 min; read-out: Ke
T1 construct: from tissue; host or cells: vas deferens of male ddy mice
Procedure, shortened: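 Vas deferens from male ddy mice in Krebs-Henseleit at 37 °C (5% CO2/95% O2), field-stimulated at 0.1 Hz, 5.0 ms, isometric contraction recorded. IC50 dose ratio, Ke and Schild pA2 derived.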

[1] = test system: Cerebral cortex nerve cells; experiment: Brain cell-protecting action, MTT method; type: cell-based, rat; details: 10 μM
[2] = test system: delayed type hypersensitivity; experiment: Mouse Delayed Type Hypersensitivity Reaction Suppression Test-1 (SRBC); type: in vivo; details: SRBC sensitization; subcutaneous, everyday from 3 days before sensitization, totally 8 days; BALB/c
Protocol: BALB/c mice (male, 7 weeks old) were used. The mice were classified into groups depending on the body weight, each group consisting of 7-8 mice. Each of the mice was sensitized by subcutaneously administering […] of SRBC (8×10^8 in saline) on the heel of the left hing leg. On day 4 from the sensitization, 25 μl of SRBC (8×10^9 in saline) was subcutaneously administered on the right footpad so as to induce delayed type hypersensitivity. The difference in the thicknesses of the right footpad before the induction of reaction and 24 hours after the induction of the reaction was employed as an index of the degree of the reaction.
The test compound was dissolved in 10% DMSO-water and was subcutaneously administered everyday from 3 days before the sensitization to the day of induction of the reaction, totally 8 days. In the control group, 10% DMSO-water alone was administered in the same manner. The volume of administration was 5 ml/kg in both study groups and in the control group.
The % suppression of the delayed type hypersensitivity reaction was calculated according to the following equation: [formula]
wherein A means the difference in the thickness of the right hind leg before and after the reaction in control group, and B means the difference in the thickness of the right hind leg before and after the reaction in the group to which the test compound was administered.

[3] = test system: delayed type hypersensitivity; experiment: Mouse Delayed Type Hypersensitivity Reaction Suppression Test-2 (donor spleen cells, subcutaneous administration); type: in vivo; details: C57BL/6 spleen cells; subcutaneous everyday from day of sensitization, totally 8 days; BALB/c
Source text: (§1) BALB/c mice (male, 7 weeks old) were used, and each group consisted of 4-5 mice. Spleen cells (1×10^7 ) obtained from a donor mouse (C57BL/6) was subcutaneously administered to sensitize the mice. On Day 7 from the sensitization, the spleen cells (5×10^6) of the donor were subcutaneously administered on the right hing leg and spleen cells (5×10^6) obtained from a mouse of the same line as the recipient mice were subcutaneously administered on the left footpad. Twenty four hours later, the thicknesses of the right and left footpads were measured with a dial thickness gage, and the difference in thicknesses of the right and left footpads before the induction of the reaction and 24 hours after the induction of the reaction was employed as the index of the degree of the reaction.
The test compound was dissolved in 10% DMSO-water and was subcutaneously administered everyday from the day of sensitization to the day of induction of the reaction, totally 8 days. In the control group, 10% DMSO-water alone was administered in the same manner. The volume of administration was 10 ml/kg in both study groups and in the control group. Delayed Type Hypersensitivity Reaction=(thickness of right foodpad after induction-thickness of right footpad before induction)-(thickness of […] before induction) [formula]
wherein C means delayed type hypersensitivity reaction of the group to which the test compound was administered and D means the delayed type hypersensitivity reaction of the group to which vehicle was administered.

[4] = test system: delayed type hypersensitivity; experiment: Delayed type hypersensitivity suppression test using mice from which adrenal glands have been removed; type: in vivo, mouse; details: for % Suppression: subcutaneous, totally 8 days
Source text: The mechanism of immunosuppression of the compound of the present invention was examined using delayed type hypersensitivity suppression test using mice from which adrenal glands have been removed.
as §1, with “(1×10^7)” for “(1×10^7 )”, “footpad” for “hing leg”, “strain” for “line”
The adrenectomy was performed by cutting the back of each recipient mouse under anesthesia with ether before the sensitization and removing the adrenal gland. Sham operation was performed by cutting the back of each recipient mouse but not removing the adrenal gland.
The test compound was dissolved in 10% DMSO-water and was subcutaneously administered everyday from the day of sensitization to the day of induction of the reaction, totally 8 days. In the control group, 10% DMSO-water alone was administered in the same manner. The volume of administration was 10 ml/kg in both study groups and in the control groups.

T1 sequence (P32300 whole entry): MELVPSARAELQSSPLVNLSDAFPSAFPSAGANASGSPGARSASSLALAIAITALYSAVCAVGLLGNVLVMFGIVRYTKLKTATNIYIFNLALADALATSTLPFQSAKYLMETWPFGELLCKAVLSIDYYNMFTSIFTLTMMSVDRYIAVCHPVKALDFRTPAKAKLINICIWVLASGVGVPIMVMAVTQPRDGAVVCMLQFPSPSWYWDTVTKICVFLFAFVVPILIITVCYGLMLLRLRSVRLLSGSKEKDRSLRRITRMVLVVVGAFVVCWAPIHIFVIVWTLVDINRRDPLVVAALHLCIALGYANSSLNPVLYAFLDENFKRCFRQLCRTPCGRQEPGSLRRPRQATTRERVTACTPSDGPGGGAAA

## Oc1ccc2c3c1O[C@H]1c4[nH]c5ccccc5c4C[C@@]4(O)[C@@H](C2)N(CC2CC2)CC[C@]314 [NTI, reference compound]
δ-opioid receptor
  Kb: 0.21 nM
[1]; MTT
  brain cell-protecting action (in words): has brain cell-protecting action
[1]; study group / control group, 570 nm, 3 days culture
  Ratio of Absorbances: 4.21
[2]
  % Suppression: did not suppress
[3]
  % Suppression: 60%
[4]; Adrenectomy vs sham
  suppressive effect after removing adrenal gland (in words): disappeared by removing adrenal gland
[4]; Adrenectomy
  % Suppression: 0%
[4]; Sham Operation
  % Suppression: 50%
